One test concerns the target T1, ACK1 (Homo sapiens, UniProt Q07912).
T1 construct: purchased Reaction Biology (RBC)
The experiment in a line: Enzyme activity inhibition (Reaction Biology). Type of test: biochemical. On the procedure:
(§1) [* <10 nM: A, <100 nM: B, >100 nM: C]. [Table 7]

The target in another test is T2, BMX (Homo sapiens, UniProt P51813).
T2 construct: purchased Reaction Biology (RBC)
T2 sequence (P51813 1-675): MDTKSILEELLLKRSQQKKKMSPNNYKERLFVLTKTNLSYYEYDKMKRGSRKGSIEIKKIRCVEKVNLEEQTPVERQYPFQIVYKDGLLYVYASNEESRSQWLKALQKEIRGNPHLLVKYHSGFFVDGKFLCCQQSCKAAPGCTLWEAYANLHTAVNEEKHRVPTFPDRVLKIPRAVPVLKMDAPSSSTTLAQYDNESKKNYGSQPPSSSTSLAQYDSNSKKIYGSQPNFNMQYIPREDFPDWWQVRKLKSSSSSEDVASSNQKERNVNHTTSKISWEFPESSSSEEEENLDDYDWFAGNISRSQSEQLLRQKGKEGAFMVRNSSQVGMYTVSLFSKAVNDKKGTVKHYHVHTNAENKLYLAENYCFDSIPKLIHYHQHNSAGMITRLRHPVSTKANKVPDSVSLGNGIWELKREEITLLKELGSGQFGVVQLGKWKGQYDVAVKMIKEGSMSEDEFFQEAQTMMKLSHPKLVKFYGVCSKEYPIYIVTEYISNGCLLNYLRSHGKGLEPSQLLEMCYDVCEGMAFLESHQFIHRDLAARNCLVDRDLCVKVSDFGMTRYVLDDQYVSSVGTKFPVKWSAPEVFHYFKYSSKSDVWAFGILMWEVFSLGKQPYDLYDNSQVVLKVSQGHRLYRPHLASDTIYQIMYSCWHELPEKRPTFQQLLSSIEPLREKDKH
Kind of test: Enzyme activity inhibition (Reaction Biology). The test is classed as biochemical. Here is the method:
as §1

The next test addresses T3, Src (Homo sapiens, UniProt P12931).
T3 construct: purchased Reaction Biology (RBC)
Kind of test: Enzyme activity inhibition (Reaction Biology). Type of test: biochemical. On the procedure:
as §1

The next test relates to 22Rv1. The experiment in a line: Cell line inhibition analysis (CCK-8, 72 h). The test is classed as cell-based. The following applies: Homo sapiens; 22Rv1, 72 hours; read-out: Cell growth inhibition GI50 22Rv1. Here is the method: (§2) C4-2B and 22Rv1 cells were purchased from ATCC and cultured according to the manufacturer's instructions. The cells were seeded in 96-well plates at 7×10^3cells/100 µl/well and allowed to attach for one day. After removing the culture medium, 90 µl/well of fresh culture medium was added, followed by addition of 10 µl/well of culture medium containing compounds at nine concentrations (0.076-500 µM) serially diluted 3-fold and DMSO control to achieve final concentrations of 0-50 µM, and then cultured for 72 hours in a 37 °C CO2 incubator. Cell proliferation after 72 hours was assessed by adding 10 µl/well of CCK-8 solution, orbital shaking for 30 seconds, then incubating at 37 °C CO2 incubator for 2 hours and measuring absorbance at 450 nm using a microplate reader. The measured absorbance values were corrected by subtracting the absorbance of wells containing only culture medium and CCK-8 solution, and GI50 values were calculated using GraphPad Prism 8 software.
(§3) Meanwhile, in a separate 96-well plate, cells were seeded at 7 × 10^3 cells/100 µl/well, allowed to attach for one day, CCK-8 solution was added, and absorbance was measured to establish the 'Growth (%) = 0' value.

In another test the test system is C4-2B. Kind of test: Cell line inhibition analysis (CCK-8, 72 h). The following applies: read-out: Cell growth inhibition GI50 C4-2B. The test is classed as cell-based. Here is the method:
as §2, §3

Another test has as its system A172. The experiment in a line: Cell line inhibition analysis (CCK-8, 72 h). The test is classed as cell-based. The following applies: Homo sapiens, A 172; read-out: Cell growth inhibition GI50 A172. On the procedure:
as §2, §3
(§4) Furthermore, experiments were conducted on A172, A549, HCI-H460, AsPC-1, MIA-Paca-2, DLD-1, HCT-116, HT-29, SW480, SW620, MDA-MB-231, and SKOV3 cell lines using the same method, with results shown in Tables 9 and 10 below [* <1 µM: A, <5 µM: B, <10 µM: C, >10 µM: D].

In another test the test system is A549. The experiment in a line: Cell line inhibition analysis (CCK-8, 72 h). The test is classed as cell-based. Particulars: Homo sapiens, read-out: Cell growth inhibition GI50 A549. Here is the method:
as §2, §3, §4

A further test deals with AsPC-1. The experiment in a line: Cell line inhibition analysis (CCK-8, 72 h). The test is classed as cell-based. The following applies: Homo sapiens, ASPC1; read-out: Cell growth inhibition GI50 AsPC-1. Here is the method: as §2, §3, §4
The next test concerns DLD-1. Kind of test: Cell line inhibition analysis (CCK-8, 72 h). The test is classed as cell-based. The following applies: Homo sapiens, read-out: Cell growth inhibition GI50 DLD-1. On the procedure: as §2, §3, §4
For another test, the system named is HCI-H460. Kind of test: Cell line inhibition analysis (CCK-8, 72 h). Type of test: cell-based. The following applies: read-out: Cell growth inhibition GI50 HCI-H460. On the procedure:
as §2, §3, §4

The next test has as its system HCT-116. Kind of test: Cell line inhibition analysis (CCK-8, 72 h). Type of test: cell-based. The following applies: Homo sapiens, read-out: Cell growth inhibition GI50 HCT-116. Here is the method: as §2, §3, §4
The subject of another test is HT-29. The experiment in a line: Cell line inhibition analysis (CCK-8, 72 h). Type of test: cell-based. Particulars: Homo sapiens, read-out: Cell growth inhibition GI50 HT-29. Here is the method: as §2, §3, §4
The next test concerns MDA-MB-231. Kind of test: Cell line inhibition analysis (CCK-8, 72 h). The test is classed as cell-based. Particulars: Homo sapiens, read-out: Cell growth inhibition GI50 MDA-MB-231. On the procedure: as §2, §3, §4
The next test has as its system MIA-Paca-2. Kind of test: Cell line inhibition analysis (CCK-8, 72 h). Type of test: cell-based. The following applies: Homo sapiens, read-out: Cell growth inhibition GI50 MIA-Paca-2. On the procedure:
as §2, §3, §4

Another test concerns SKOV3. Kind of test: Cell line inhibition analysis (CCK-8, 72 h). Particulars: Homo sapiens, SK-OV-3; read-out: Cell growth inhibition GI50 SKOV3. Type of test: cell-based. Here is the method:
as §2, §3, §4

The subject of another test is SW480. Kind of test: Cell line inhibition analysis (CCK-8, 72 h). Particulars: Homo sapiens, read-out: Cell growth inhibition GI50 SW480. The test is classed as cell-based. On the procedure:
as §2, §3, §4

For another test, the system named is SW620. The experiment in a line: Cell line inhibition analysis (CCK-8, 72 h). The test is classed as cell-based. Particulars: Homo sapiens, SW-620; read-out: Cell growth inhibition GI50 SW620. On the procedure: as §2, §3, §4

This is an account of results in patent EP4722212A1, “NOVEL COMPOUND FOR INHIBITING PROTEIN KINASES AND PHARMACEUTICAL COMPOSITION COMPRISING SAME” (Magicbullettherapeutics Co., Ltd., priority 2023, dated 2024).

T3 sequence (P12931 whole entry): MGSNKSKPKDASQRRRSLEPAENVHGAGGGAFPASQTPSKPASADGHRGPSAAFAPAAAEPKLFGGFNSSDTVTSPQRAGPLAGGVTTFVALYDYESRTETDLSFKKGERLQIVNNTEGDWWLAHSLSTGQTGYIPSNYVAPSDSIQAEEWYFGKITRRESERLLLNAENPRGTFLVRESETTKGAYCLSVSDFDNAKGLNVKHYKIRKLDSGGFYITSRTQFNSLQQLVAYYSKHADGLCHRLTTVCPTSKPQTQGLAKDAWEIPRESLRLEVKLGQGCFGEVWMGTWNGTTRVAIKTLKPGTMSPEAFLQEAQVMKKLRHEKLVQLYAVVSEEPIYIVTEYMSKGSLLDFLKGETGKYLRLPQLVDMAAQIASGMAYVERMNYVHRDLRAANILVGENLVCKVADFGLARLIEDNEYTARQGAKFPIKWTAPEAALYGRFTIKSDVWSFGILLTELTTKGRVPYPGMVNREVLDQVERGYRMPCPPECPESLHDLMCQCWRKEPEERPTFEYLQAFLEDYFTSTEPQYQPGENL
T1 sequence (Q07912 whole entry): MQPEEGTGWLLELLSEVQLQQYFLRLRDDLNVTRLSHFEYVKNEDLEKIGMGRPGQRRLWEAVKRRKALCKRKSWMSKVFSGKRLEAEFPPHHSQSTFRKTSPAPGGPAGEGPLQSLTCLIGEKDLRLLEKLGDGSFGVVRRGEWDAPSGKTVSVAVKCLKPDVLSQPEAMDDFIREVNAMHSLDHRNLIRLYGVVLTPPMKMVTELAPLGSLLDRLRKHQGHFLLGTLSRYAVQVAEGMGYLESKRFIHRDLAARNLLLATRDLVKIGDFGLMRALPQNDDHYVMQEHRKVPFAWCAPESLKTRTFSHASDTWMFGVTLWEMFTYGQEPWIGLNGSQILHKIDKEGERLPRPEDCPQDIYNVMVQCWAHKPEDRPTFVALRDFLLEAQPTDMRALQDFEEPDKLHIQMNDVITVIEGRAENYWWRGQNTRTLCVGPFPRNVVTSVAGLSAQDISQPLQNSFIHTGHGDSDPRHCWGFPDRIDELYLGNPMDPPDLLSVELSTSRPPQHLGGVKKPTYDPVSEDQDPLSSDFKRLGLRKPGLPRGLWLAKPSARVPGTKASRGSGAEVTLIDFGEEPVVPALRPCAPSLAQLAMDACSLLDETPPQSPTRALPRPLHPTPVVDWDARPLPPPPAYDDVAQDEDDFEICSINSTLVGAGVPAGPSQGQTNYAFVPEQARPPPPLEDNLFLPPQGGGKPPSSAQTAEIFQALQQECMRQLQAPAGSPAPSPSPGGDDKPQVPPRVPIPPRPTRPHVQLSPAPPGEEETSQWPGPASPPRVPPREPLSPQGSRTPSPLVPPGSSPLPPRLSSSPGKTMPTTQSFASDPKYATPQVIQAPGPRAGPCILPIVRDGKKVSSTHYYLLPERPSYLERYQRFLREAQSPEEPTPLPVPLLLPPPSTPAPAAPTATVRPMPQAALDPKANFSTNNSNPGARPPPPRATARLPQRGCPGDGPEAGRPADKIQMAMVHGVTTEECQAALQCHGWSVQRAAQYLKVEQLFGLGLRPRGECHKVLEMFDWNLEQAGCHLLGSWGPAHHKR

One may read the IC50 as the concentration at which inhibition is half-maximal. Low readings indicate greater potency in that assay, high ones weaker potency in that assay. In general, GI50 refers to the concentration that inhibits growth by half. As for `Cc1ccc(NC(=O)c2cccc(C(F)(F)F)c2)cc1N1Cc2cnc(N)nc2C2(CC2)C1=O` [Compound 2, N-(3-(2'-amino-7'-oxo-5'H-spiro[cyclopropane-1,8'-pyrido[4,3-d]pyrimidine]-6'(7'H)-yl)-4-methylphenyl)-3-(trifluoromethyl)benzamide], the IC50 against ACK1, at BMX and against Src was 10 to 100 nM each time. The GI50 is 1000 to 5000 nM in the test on 22Rv1; 1000 to 5000 nM with C4-2B; under 1000 nM in the test with A172; over 10000 nM in the test with A549; under 1000 nM in the test with AsPC-1; 1000 to 5000 nM in the test with DLD-1. The GI50 with HCI-H460 was 1000 to 5000 nM; with HCT-116, under 1000 nM; with HT-29 it was over 10000 nM; in the test with MDA-MB-231, 1000 to 5000 nM; with MIA-Paca-2, under 1000 nM; in the test on SKOV3, 1000 to 5000 nM. Further, the GI50 in the test on SW480 and with SW620 was 1000 to 5000 nM each time.
Regarding `Cc1ccc(NC(=O)c2cccc(C(F)(F)F)c2)cc1N1Cc2cnc(NC3CC3)nc2C2(CC2)C1=O` [Compound 3, N-(3-(2'-(cyclopropylamino)-7'-oxo-5'H-spiro[cyclopropane-1,8'-pyrido[4,3-d]pyrimidine]-6'(7'H)-yl)-4-methylphenyl)-3-(trifluoromethyl)benzamide], the IC50 is 10 to 100 nM against ACK1, under 10 nM against BMX and 10 to 100 nM against Src. The GI50 with 22Rv1 was over 10000 nM; in the test on C4-2B it was 1000 to 5000 nM; with AsPC-1 it was 1000 to 5000 nM; in the test on HCT-116, 1000 to 5000 nM; in the test on MDA-MB-231 it was 1000 to 5000 nM; in the test with SW480, 1000 to 5000 nM. For the same molecule, the GI50 in the test on SW620 was in the range of 1000 to 5000 nM.
Take `Cc1ccc(NC(=O)c2cc(F)cc(C(F)(F)F)c2)cc1N1Cc2cnc(N)nc2C2(CC2)C1=O` [Compound 7, N-(3-(2'-amino-7'-oxo-5'H-spiro[cyclopropane-1,8'-pyrido[4,3-d]pyrimidine]-6'(7'H)-yl)-4-methylphenyl)-3-fluoro-5-(trifluoromethyl)benzamide]: the IC50 at ACK1, on BMX and against Src was under 10 nM each time. Besides, the GI50 in the test on 22Rv1 was under 1000 nM; in the test with C4-2B it was under 1000 nM; in the test on AsPC-1 it was under 1000 nM; in the test on HCT-116, 1000 to 5000 nM; in the test on MDA-MB-231 it was 1000 to 5000 nM; in the test with SW480, 1000 to 5000 nM. For the same molecule, the GI50 in the test on SW620 fell in the range of 1000 to 5000 nM.
As for `Cc1ccc(NC(=O)c2cncc(C(F)(F)F)c2)cc1N1Cc2cnc(N)nc2C2(CC2)C1=O` [Compound 24, N-(3-(2'-amino-7'-oxo-5'H-spiro[cyclopropane-1,8'-pyrido[4,3-d]pyrimidine]-6'(7'H)-yl)-4-methylphenyl)-5-(trifluoromethyl)nicotinamide], the IC50 at ACK1, against BMX and against Src was under 10 nM each time. Further, the GI50 in the test with 22Rv1 is 5000 to 10000 nM; with C4-2B, 1000 to 5000 nM; in the test with A172, under 1000 nM; in the test with A549, over 10000 nM; in the test on AsPC-1, 1000 to 5000 nM; in the test with DLD-1, 1000 to 5000 nM. In addition, the GI50 in the test with HCI-H460 was 1000 to 5000 nM; in the test with HCT-116, under 1000 nM; with HT-29, over 10000 nM; in the test with MDA-MB-231 it was 1000 to 5000 nM; with MIA-Paca-2, 1000 to 5000 nM; in the test on SKOV3 it was 1000 to 5000 nM. Besides, the GI50 in the test with SW480 was 1000 to 5000 nM; in the test on SW620 it was under 1000 nM.
In the case of `Cc1ccc(NC(=O)c2cccc(C(F)(F)F)c2)cc1N1Cc2cnc(Nc3cnn(CC(F)(F)F)c3)nc2C2(CC2)C1=O` [Compound 64, N-(4-methyl-3-(7'-oxo-2'-((1-(2,2,2-trifluoroethyl)-1H-pyrazol-4-yl)amino)-5'H-spiro[cyclopropane-1,8'-pyrido[4,3-d]pyrimidine]-6'(7'H)-yl)phenyl)-3-(trifluoromethyl)benzamide], the GI50 with AsPC-1, in the test on HCT-116, in the test with MDA-MB-231, in the test with SW480 and in the test with SW620 was under 1000 nM each time.
With `Cc1ccc(NC(=O)c2cccc(C(F)(F)F)c2)cc1N1Cc2cnc(NCCO)nc2C2(CC2)C1=O` [Compound 126, N-(3-(2'-((2-hydroxyethyl)amino)-7'-oxo-5'H-spiro[cyclopropane-1,8'-pyrido[4,3-d]pyrimidine]-6'(7'H)-yl)-4-methylphenyl)-3-(trifluoromethyl)benzamide], the GI50 in the test with A172 was 1000 to 5000 nM; with A549, 1000 to 5000 nM; in the test on HT-29 it was 5000 to 10000 nM.
For `Cc1ccc(NC(=O)c2cccc(C(F)(F)F)c2)cc1N1Cc2cnc(N[C@@H](C)CO)nc2C2(CC2)C1=O` [Compound 127, (S)-N-(3-(2'-((1-hydroxypropan-2-yl)amino)-7'-oxo-5'H-spiro[cyclopropane-1,8'-pyrido[4,3-d]pyrimidine]-6'(7'H)-yl)-4-methylphenyl)-3-(trifluoromethyl)benzamide], the GI50 in the test on A172 is under 1000 nM; in the test on A549 it was over 10000 nM; in the test on HT-29 it was over 10000 nM.
For `Cc1ccc(NC(=O)c2cncc(C(F)(F)F)c2)cc1N1Cc2cnc(NCCO)nc2C2(CC2)C1=O` [Compound 130, N-(3-(2'-((2-hydroxyethyl)amino)-7'-oxo-5'H-spiro[cyclopropane-1,8'-pyrido[4,3-d]pyrimidine]-6'(7'H)-yl)-4-methylphenyl)-5-(trifluoromethyl)nicotinamide], the GI50 with A172 was 1000 to 5000 nM; with A549, over 10000 nM; in the test with HT-29, over 10000 nM.
Turning to `Cc1ccc(NC(=O)c2cncc(C(F)(F)F)c2)cc1N1Cc2cnc(N[C@@H](C)CO)nc2C2(CC2)C1=O` [Compound 131, (S)-N-(3-(2'-((1-hydroxypropan-2-yl)amino)-7'-oxo-5'H-spiro[cyclopropane-1,8'-pyrido[4,3-d]pyrimidine]-6'(7'H)-yl)-4-methylphenyl)-5-(trifluoromethyl)nicotinamide], the GI50 in the test on A172 is 1000 to 5000 nM; with A549 it was over 10000 nM; with HT-29, over 10000 nM.
